Where “and” joins values, the source holds several entries; their conditions need not be identical. Identical values can stand only once. Inconclusive results and toxic doses are left out.
Tested on: L1210 leukemia ip in BDF1 mice, survival T/C
Test: NCI In Vivo Anticancer Drug Screen. Data for tumor model L1210 Leukemia (intraperitoneal) in B6D2F1 (BDF1) mice
Settings: endpoint: mean survival time, higher = longer survival
Summary of the method: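 Value reflects the ratio of survival in compound-treated mice to survival in vehicle-treated controls, with both groups carrying the same transplanted tumor.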

[1] = dose: 100.0 mg/kg/injection, schedule: Q04DX002 (ip), vehicle: saline with Tween-80
[2] = dose: 200.0 mg/kg/injection, schedule: Q04DX002 (ip), vehicle: saline with Tween-80
[3] = dose: 400.0 mg/kg/injection, schedule: Q04DX002 (ip), vehicle: saline with Tween-80

Nc1ccc(OCCNS(=O)(=O)c2ccc(S(=O)(=O)F)cc2)c(Cl)c1
T/C (dose: 25.0 mg/kg/injection, schedule: Q04DX003 (ip), vehicle: Klucel (hydroxypropylcellulose) (HPC)): 97 % of control
T/C (dose: 50.0 mg/kg/injection, schedule: Q01DX001 (ip), vehicle: saline with Tween-80): 91 % of control
T/C (dose: 50.0 mg/kg/injection, schedule: Q04DX003 (ip), vehicle: Klucel (hydroxypropylcellulose) (HPC)): 97 % of control
T/C (dose: 100.0 mg/kg/injection, schedule: Q01DX001 (ip), vehicle: saline with Tween-80): 92 % of control
T/C (dose: 100.0 mg/kg/injection, schedule: Q04DX003 (ip), vehicle: Klucel (hydroxypropylcellulose) (HPC)): 99 % of control and 105 % of control
T/C (dose: 200.0 mg/kg/injection, schedule: Q01DX001 (ip), vehicle: saline with Tween-80): 100 % of control

Cc1cc2ccccc2c(N)c1C#N
T/C (dose: 100.0 mg/kg/injection, schedule: Q01DX009 (ip), vehicle: saline with Tween-80): 102 % of control and 106 % of control
T/C [1]: 93 % of control and 100 % of control
T/C (dose: 200.0 mg/kg/injection, schedule: Q01DX009 (ip), vehicle: saline with Tween-80): 92 % of control and 90 % of control
T/C [2]: 91 % of control
T/C (dose: 400.0 mg/kg/injection, schedule: Q01DX009 (ip), vehicle: saline with Tween-80): 95 % of control
T/C [3]: 100 % of control and 88 % of control

C#CC1(O)CCCCCC1
T/C [1]: 95 % of control
T/C [2]: 100 % of control
T/C [3]: 92 % of control

O=NN(CCCl)C(=O)Nc1cc(NC(=O)N(CCCl)N=O)cc(C(=O)O)c1
T/C (dose: 0.22 mg/kg/injection, schedule: Q01DX009 (ip), vehicle: saline): 110 % of control
T/C (dose: 0.34 mg/kg/injection, schedule: Q01DX009 (ip), vehicle: saline): 117 % of control
T/C (dose: 0.52 mg/kg/injection, schedule: Q01DX009 (ip), vehicle: saline): 290 % of control
T/C (dose: 0.62 mg/kg/injection, schedule: Q01DX001 (ip), vehicle: carboxymethylcellulose (CMC)): 112 % of control
T/C (dose: 0.83 mg/kg/injection, schedule: Q04DX003 (ip), vehicle: saline): 114 % of control
T/C (dose: 1.25 mg/kg/injection, schedule: Q01DX001 (ip), vehicle: carboxymethylcellulose (CMC)): 123 % of control
T/C (dose: 1.25 mg/kg/injection, schedule: Q04DX003 (ip), vehicle: saline): 122 % of control
T/C (dose: 1.7 mg/kg/injection, schedule: Q01DX001 (ip), vehicle: saline): 155 % of control
T/C (dose: 2.6 mg/kg/injection, schedule: Q01DX001 (ip), vehicle: saline with Tween-80): 151 % of control
T/C (dose: 5.0 mg/kg/injection, schedule: Q01DX009 (ip), vehicle: Klucel (hydroxypropylcellulose) (HPC)): 93 % of control
T/C (dose: 5.0 mg/kg/injection, schedule: Q01DX009 (ip), vehicle: saline): 162 % of control
T/C (dose: 6.6 mg/kg/injection, schedule: Q04DX003 (ip), vehicle: saline): 153 % of control
T/C (dose: 9.0 mg/kg/injection, schedule: Q01DX001 (ip), vehicle: saline): 152 % of control
T/C (dose: 10.0 mg/kg/injection, schedule: Q01DX009 (ip), vehicle: Klucel (hydroxypropylcellulose) (HPC)): 150 % of control and 160 % of control
T/C (dose: 10.0 mg/kg/injection, schedule: Q01DX009 (ip), vehicle: saline): 212 % of control
T/C (dose: 12.0 mg/kg/injection, schedule: Q01DX001 (ip), vehicle: saline): 150 % of control
T/C (dose: 13.0 mg/kg/injection, schedule: Q04DX003 (ip), vehicle: saline): 155 % of control
T/C (dose: 15.0 mg/kg/injection, schedule: Q01DX009 (ip), vehicle: Klucel (hydroxypropylcellulose) (HPC)): 150 % of control
T/C (dose: 17.0 mg/kg/injection, schedule: Q01DX001 (ip), vehicle: saline with Tween-80): 196 % of control
T/C (dose: 20.0 mg/kg/injection, schedule: Q01DX009 (ip), vehicle: Klucel (hydroxypropylcellulose) (HPC)): 195 % of control
T/C (dose: 20.0 mg/kg/injection, schedule: Q01DX009 (ip), vehicle: saline): 102 % of control
T/C (dose: 20.0 mg/kg/injection, schedule: Q04DX003 (ip), vehicle: saline): 161 % of control
T/C (dose: 26.0 mg/kg/injection, schedule: Q01DX001 (ip), vehicle: saline with Tween-80): 155 % of control
T/C (dose: 26.0 mg/kg/injection, schedule: Q01DX001 (ip), vehicle: saline): 152 % of control

CN1CCN(C(=O)C2CCCCC2C(=O)O)CC1 (stereo not drawn)
T/C (dose: 100.0 mg/kg/injection, schedule: Q04DX002 (ip), vehicle: saline): 107 % of control
T/C (dose: 200.0 mg/kg/injection, schedule: Q04DX002 (ip), vehicle: saline): 107 % of control
T/C (dose: 400.0 mg/kg/injection, schedule: Q04DX002 (ip), vehicle: saline): 96 % of control

CC1(C(=O)O)C2CCC(C2)C1C(=O)O (stereo not drawn)
T/C (dose: 100.0 mg/kg/injection, schedule: Q04DX003 (ip), vehicle: saline): 107 % of control
T/C (dose: 200.0 mg/kg/injection, schedule: Q04DX003 (ip), vehicle: saline): 102 % of control
T/C (dose: 400.0 mg/kg/injection, schedule: Q04DX003 (ip), vehicle: saline): 105 % of control

CCCCCCCCCC(=O)Nc1c(C)cccc1C
T/C [1]: 94 % of control
T/C [2]: 111 % of control
T/C [3]: 94 % of control

Reference: PubChem BioAssay AID248 (DTP/NCI, 2004)
